Laboratory results taken from patent US11820754B2, “Polymorphs of an SSAO inhibitor” (Eli Lilly and Company, priority 2020, dated 2023).

Assay: Competitive slurry study (Form I vs Form II, XRPD of wet cake)
Assay type: physicochemical
Details: for XRPD Pattern (wet cake): 800 rpm
Protocol: XRPD analyses were performed with techniques and equipments known in the art with Cu K-alpha radiation.
Competitive slurry experiments were performed at 25° C. and 50° C. Saturated solutions of Form I in ACN and acetone at 25° C. and 50° C. were prepared. About 15 mg of Form I and Form II were weighted into the solutions respectively, and the suspensions were slurried for 1 or 3 days at 800 rpm.

Row | Compound | Conversion of form mixture in slurry, as determined by XRPD (25 °C and 50 °C, ACN and acetone, slurried 1 or 3 days) | XRPD Pattern (wet cake) (ACN, 25 °C, slurry time 1 day) | XRPD Pattern (wet cake) (ACN, 25 °C, slurry time 3 days) | XRPD Pattern (wet cake) (ACN, 50 °C, slurry time 1 day) | XRPD Pattern (wet cake) (Acetone, 25 °C, slurry time 1 day) | XRPD Pattern (wet cake) (Acetone, 50 °C, slurry time 1 day) | XRPD Pattern (wet cake) (Acetone, 50 °C, slurry time 3 days) | Relative thermodynamic stability of polymorphic forms (versus Form I, at a temperature of 50 °C or below)
1 | COC1CCN(c2ncc(OC/C(=C/F)CN)cn2)CC1.Cc1ccc(S(=O)(=O)O)cc1 [Form I + Form II] | completely converted to Form II | Form I + Form II | Form II | Form II | Form II | Form I + Form II | Form II | 
2 | COC1CCN(c2ncc(OC/C(=C/F)CN)cn2)CC1.Cc1ccc(S(=O)(=O)O)cc1 [Form II, (2E)-3-fluoro-2-({[2-(4-methoxypiperidin-1-yl)pyrimidin-5-yl]oxy}methyl)prop-2-en-1-aminium 4-methylbenzenesulfonate] |  |  |  |  |  |  |  | more thermodynamically stable
